From ChEMBL document CHEMBL1133129, “A focused compound library of novel N-(7-indolyl)benzenesulfonamides for the discovery of potent cell cycle inhibitors” (Bioorg Med Chem Lett, 2000) come the findings set out here.

Converted amounts (≈) assume the structure as drawn. The source made the active and inactive calls. No cut-off for these calls is given here. A value given as a limit tells only on which side of the number the result lay.

Experiment [1] relates to P388. Put plainly: Effect on the cell cycle progression using P388 cells at 4.0 ug/mL for 24 hr; GI increase. As to conditions: Mus musculus. Format: functional, cell-based.
Experiment [2] concerns MC-38. Put plainly: In vitro antiproliferative activity (4 ug/mL) was measured against colon 38 cancer cell line using MTT colorimetric assay. The format is functional, cell-based. Conditions: Mus musculus.
The test system of experiment [3] is KB. Put plainly: In vitro antiproliferative activity (4 ug/mL) was measured against KB cancer cell line using MTT colorimetric assay. Format: functional, cell-based. As to conditions: Homo sapiens.
For experiment [4], the system named is P388. Put plainly: Effect on the cell cycle progression using P388 cells at 4.0 ug/mL for 24 hr; G2/M increase. Conditions: Mus musculus. Format: functional, cell-based.
A further experiment addresses Tubulin (Bos taurus) (UniProt Q6B856+Q862L2+Q862F3). Put plainly: Compound was tested against bovine brain tubulin polymerization; active. Format: functional.
Experiment [5] deals with P388. Put plainly: In vitro antiproliferative activity was measured against P388 cancer cell line using MTT colorimetric assay. As to conditions: Mus musculus.
Experiment [6] relates to MC-38. Put plainly: In vitro antiproliferative activity measured against colon 38 cancer cell line using MTT colorimetric assay. Conditions: Mus musculus. Format: functional, cell-based.
In experiment [7] the test system is P388. Put plainly: In vitro antiproliferative activity measured against P388 cancer cell line using MTT colorimetric assay. The format is functional, cell-based. As to conditions: Mus musculus.
Experiment [8] relates to P388. Put plainly: Effect on the cell cycle progression using P388 cells at 4.0 ug/mL for 24 hr; G2/M arrest & 4C-8C drug treated cells underwent an extra DNA replication without the completion of mitosis. The format is functional, cell-based. As to conditions: Mus musculus.
Experiment [9] concerns KB. Put plainly: In vitro antiproliferative activity measured against KB cancer cell line using MTT colorimetric assay. Format: functional, cell-based. As to conditions: Homo sapiens.
In experiment [10] the test system is P388. Put plainly: Effect on the cell cycle progression using P388 cells at 4.0 ug/mL for 24 hr; No effect. Format: functional, cell-based. Conditions: Mus musculus.
Experiment [11] concerns P388. Put plainly: Effect on the cell cycle progression using P388 cells at 4.0 ug/mL for 24 hr; G2/M arrest. Format: functional, cell-based. As to conditions: Mus musculus.

Turning to `N#Cc1ccc(S(=O)(=O)Nc2cccc3c(Cl)c[nH]c23)cc1`, in the experiment on P388 [1], the Cell cycle analysis result was “GI increase”.
With `O=S(=O)(Nc1cccc2cc(Cl)[nH]c12)c1ccc(Cl)cc1`, the values for the IC50 in the experiment on MC-38 [2], with KB [3] and with P388 [5] were 10 µg/mL (≈ 29.3 µM), 4 µg/mL (≈ 11.7 µM) and 7.4 µg/mL (≈ 21.7 µM), respectively. Further, in the experiment on P388 [4], the Cell cycle analysis result was “G2/M increase”. Further, the outcome on Tubulin (Bos taurus) was Active.
Regarding `O=S(=O)(Nc1cccc2cc(O)[nH]c12)c1ccc(Cl)cc1`, the IC50 in the experiment on MC-38 [6] came out at 4.5 µg/mL (≈ 13.9 µM); in the experiment with P388 [7] it was 2.2 µg/mL (≈ 6.82 µM); in the experiment on KB [9], 1.1 µg/mL (≈ 3.41 µM). The Cell cycle analysis result in the experiment with P388 [8] is “G2/M arrest”.
As for `O=[N+]([O-])c1ccc(S(=O)(=O)Nc2cc(Cl)cc3cc[nH]c23)cc1`, the IC50 in the experiment with MC-38 [6] amounted to 13 µg/mL (≈ 37 µM); in the experiment with P388 [7], 13 µg/mL (≈ 37 µM); in the experiment on KB [9] it was 12 µg/mL (≈ 34.1 µM). For the same molecule, the Cell cycle analysis entry with P388 [10] was “inactive”.
On to `COc1ccc(S(=O)(=O)Nc2cccc3cc(O)[nH]c23)cc1`, for which the IC50 with MC-38 [6] was found to be 0.22 µg/mL (≈ 0.691 µM); with P388 [7], 0.11 µg/mL (≈ 0.346 µM); in the experiment on KB [9], 0.1 µg/mL (≈ 0.314 µM). Besides, the Cell cycle analysis result in the experiment with P388 [11] was “G2/M arrest”.
With `O=S(=O)(Nc1cccc2cc[nH]c12)c1ccc(Cl)cc1`, the Cell cycle analysis result with P388 [10] is “inactive”.
Turning to `Cc1ccc(NS(=O)(=O)c2ccc(N)cc2)c2[nH]cc(Cl)c12`, the IC50 with MC-38 [6] was 0.1 µg/mL (≈ 0.298 µM); in the experiment with P388 [7], 0.37 µg/mL (≈ 1.1 µM); in the experiment with KB [9], 16 µg/mL (≈ 47.6 µM). For the same molecule, the Cell cycle analysis result in the experiment on P388 [1] was “GI increase”.
The matching figures for `N#Cc1ccc(S(=O)(=O)Nc2ccc(Cl)c3c(Cl)c[nH]c23)cc1`: 0.12 µg/mL (≈ 0.328 µM), 0.59 µg/mL (≈ 1.61 µM), 13 µg/mL (≈ 35.5 µM) and “GI increase”.
Regarding `Nc1ccc(S(=O)(=O)Nc2ccc(F)c3c(Cl)c[nH]c23)cc1`, the IC50 with MC-38 [6] was 0.11 µg/mL (≈ 0.324 µM); in the experiment with P388 [7], 0.51 µg/mL (≈ 1.5 µM); in the experiment on KB [9] it was 14 µg/mL (≈ 41.2 µM). In addition, the Cell cycle analysis entry in the experiment on P388 [1] is on record as “GI increase”.
On to `O=S(=O)(Nc1cccc2c(Cl)c[nH]c12)c1ccc(Cl)cc1`, for which the IC50 in the experiment with MC-38 [6] was determined as 0.28 µg/mL (≈ 0.821 µM); in the experiment with P388 [7], 4.3 µg/mL (≈ 12.6 µM); in the experiment with KB [9], 8.8 µg/mL (≈ 25.8 µM). The Cell cycle analysis entry in the experiment on P388 [1] is given as “GI increase”.
For `Nc1ccc(S(=O)(=O)Nc2ccc(Cl)c3c(Cl)c[nH]c23)cc1`, the IC50 in the experiment on MC-38 [6] turned out to be 0.1 µg/mL (≈ 0.281 µM); with P388 [7], 0.49 µg/mL (≈ 1.38 µM); in the experiment with KB [9], 14 µg/mL (≈ 39.3 µM). Also, the Cell cycle analysis entry in the experiment on P388 [1] is “GI increase”.
Consider `O=[N+]([O-])c1ccc(S(=O)(=O)Nc2cccc3cc(O)[nH]c23)cc1`, for which the results for the IC50 in the experiment with MC-38 [6], with P388 [7] and in the experiment on KB [9] were 62 µg/mL (≈ 186 µM), > 100 µg/mL and > 100 µg/mL, respectively. Moreover, the Cell cycle analysis entry in the experiment on P388 [10] is “inactive”.
For the molecule `N#Cc1ccc(S(=O)(=O)Nc2ccc(Cl)c3cc[nH]c23)cc1`, the IC50 was 0.22 µg/mL (≈ 0.663 µM) in the experiment on MC-38 [6], 1.8 µg/mL (≈ 5.43 µM) in the experiment on P388 [7] and 15 µg/mL (≈ 45.2 µM) in the experiment on KB [9]. The Cell cycle analysis entry in the experiment on P388 [1] is listed as “GI increase”.
Turning to `COc1ccc(NS(=O)(=O)c2ccc(N)cc2)c2[nH]cc(Cl)c12`, the IC50 was determined as 2.3 µg/mL (≈ 6.54 µM) in the experiment on MC-38 [6], 5.5 µg/mL (≈ 15.6 µM) with P388 [7] and 20 µg/mL (≈ 56.8 µM) in the experiment on KB [9]. The Cell cycle analysis entry with P388 [10] is “inactive”.
Take `Nc1ccc(S(=O)(=O)Nc2ccc(Br)c3c(Cl)c[nH]c23)cc1`: the IC50 in the experiment with MC-38 [6] worked out at 0.14 µg/mL (≈ 0.349 µM); with P388 [7], 0.64 µg/mL (≈ 1.6 µM); in the experiment with KB [9] it was 13 µg/mL (≈ 32.4 µM). The Cell cycle analysis entry in the experiment on P388 [1] is reported as “GI increase”.
With `O=[N+]([O-])c1ccc(S(=O)(=O)Nc2cccc3cc[nH]c23)cc1`, the IC50 turned out to be 7.2 µg/mL (≈ 22.7 µM) in the experiment on MC-38 [6], 8.2 µg/mL (≈ 25.8 µM) in the experiment with P388 [7] and 15 µg/mL (≈ 47.3 µM) in the experiment on KB [9]. For the same molecule, in the experiment on P388 [10], the Cell cycle analysis result is “inactive”.
In the case of `COc1ccc(S(=O)(=O)Nc2cccc3c(Cl)c[nH]c23)cc1`, in the experiment on P388 [8], the Cell cycle analysis result is listed as “G2/M arrest”. Besides, on Tubulin (Bos taurus), the result was Active.
